Test results reported in patent US20230241014A1, “MEK-INHIBITORS FOR THE TREATMENT OR PREVENTION OF CORONAVIRUS INFECTIONS AND/OR COVID-19 CYTOKINE STORM” (priority 2020, published 2023).

Tested on: VSV pseudotype virus carrying the SARS-CoV-2 Spike protein
Format: cell-based

In the case of `O=C(NOCC1CC1)c1ccc(F)c(F)c1Nc1ccc(I)cc1Cl` [CI-1040, reference compound], the “internalization of the VSV pseudotype virus (GFP positive cells)” value is reported as “reduction in the internalization”.
